In ChEMBL document CHEMBL3352098, “A class of 4-sulfamoylphenyl-ω-aminoalkyl ethers with effective carbonic anhydrase inhibitory action and antiglaucoma effects” (J Med Chem, 2014):
Calls of active or inactive are those of the source. No cut-off for these calls is given here.

How the values were obtained:
[1] = molecular target: Carbonic anhydrase 9 (Homo sapiens, UniProt Q16790); experiment: Inhibition of human CA-9 by stopped flow CO2 hydrase assay
[2] = system: Oryctolagus cuniculus; experiment: Antiglaucoma activity in New Zealand albino rabbit assessed as reduction in hypertonic saline-induced intraocular pressure at 2% solution administered topically measured after 2 hrs; type: functional, organism-based; conditions: Eye

Row | Compound | Ki [1] | Activity [2]
1 | CN(C)c1ccc2c(-c3ccc(NC(=S)NCCCOc4ccc(S(N)(=O)=O)cc4)cc3C(=O)O)c3ccc(=[N+](C)C)cc-3oc2c1 | 7.9 nM | –
2 | CC(C)(C)OC(=O)NCCCCCCOc1ccc(S(N)(=O)=O)cc1 | 6.9 nM | –
3 | NCCCCOc1ccc(S(N)(=O)=O)cc1 | 32.6 nM | Active
4 | CC(C)(C)OC(=O)NCCCOc1ccc(S(N)(=O)=O)cc1 | 5.8 nM | –
5 | NS(=O)(=O)c1ccc(OCCNC(=S)Nc2ccc(-c3c4ccc(=O)cc-4oc4cc(O)ccc34)c(C(=O)O)c2)cc1 | 8.5 nM | –
6 | NCCCCCCOc1ccc(S(N)(=O)=O)cc1 | 6.5 nM | –
7 | CC(C)(C)OC(=O)NCCCCOc1ccc(S(N)(=O)=O)cc1 | – | Active

Continued, in another order:

Row | Ki [1] | Compound | Activity [2]
8 | 8.7 nM | NCCOc1ccc(S(N)(=O)=O)cc1 | –
9 | 7.1 nM | CC(C)(C)OC(=O)NCCCCCOc1ccc(S(N)(=O)=O)cc1 | –
10 | 9.6 nM | CN(C)c1ccc2c(-c3ccc(NC(=S)NCCOc4ccc(S(N)(=O)=O)cc4)cc3C(=O)O)c3ccc(=[N+](C)C)cc-3oc2c1 | –
11 | 17.9 nM | NCCCOc1ccc(S(N)(=O)=O)cc1 | –
12 | 8.8 nM | NS(=O)(=O)c1ccc(OCCCCNC(=S)Nc2ccc(-c3c4ccc(=O)cc-4oc4cc(O)ccc34)c(C(=O)O)c2)cc1 | –
13 | 8.3 nM | CC(C)(C)OC(=O)NCCOc1ccc(S(N)(=O)=O)cc1 | –
14 | 6.6 nM | NCCCCCOc1ccc(S(N)(=O)=O)cc1 | –
15 | 7.2 nM | NS(=O)(=O)c1ccc(OCCCNC(=S)Nc2ccc(-c3c4ccc(=O)cc-4oc4cc(O)ccc34)c(C(=O)O)c2)cc1 | –
